A short description of data set [1]: ITC titration with sterol-free POPC LUVs. The data set is classed as binding. The conditions noted are these: no sterol LUVs, 600 μM compound. The procedure:
Isothermal Titration calorimetry (ITC)
In an optimized isothermal titration calorimetry (ITC)-based assay, an aqueous solution of AmB was titrated with a suspension of large unilamellar vesicles (LUVs) comprised of only 1-palmitoyl-2-oleoyl-sn-glycero-3-phosphocholine (POPC), and the net exotherm was recorded. The titration was repeated using POPC LUVs containing 10% ergosterol. […] The titration was repeated using C2′epiAmB. […] The ITC assay was also conducted with cholesterol in place of ergosterol.
Experiments were performed using a NanoITC isothermal titration calorimeter (TA Instruments, Wilmington, Del.). Solutions of the compounds to be tested were prepared by diluting a 60.0 mM stock solution of the compound in DMSO to 600 μM with K buffer (5.0 mM HEPES/KHEPES, pH=7.4). The final DMSO concentration in the solution was 1% v/v. Large unilamellar vesicles comprised of only 1-palmitoyl-2-oleoyl-sn-glycero-3-phosphocholine (POPC LUVs) were prepared and phosphorus and ergosterol content was quantified as described below. […]
NanoAnalyze software (TA Instruments) was used for baseline determination and integration of the injection heats, and Microsoft Excel was used for subtraction of dilution heats and the calculation of overall heat evolved. […] By this method, the overall heat evolved during the experiment was calculated using the following formula: […]

For data set [2], the system named is primary human renal proximal tubule epithelial cells. Description: WST-8 cell proliferation assay (MTC). The conditions noted are these: up to limits of solubility. Type of data set: cell-based. The procedure:
WST-8 Cell Proliferation Assays
Primary human renal proximal tubule epithelial cells (RPTECs) were purchased from ATCC (Manassas, Va.) and immediately cultured upon receipt. Complete growth media was prepared using renal epithelial cell basal medium (ATCC, PCS-400-030), renal epithelial cell growth kit (ATCC, PCS-400-040), and penicillin-streptomycin (10 units/mL and 10 μg/mL). Complete media was stored at 4° C. in the dark and used within 28 days. Primary RPTECs were grown in CO2 incubator at 37° C. with an atmosphere of 95% air/5% CO2.
WST-8 cell proliferation assay kit (Ser. No. 10/010,199) was purchased from Cayman Chemical Company (Ann Arbor, Mich.) and stored at −20° C. and used within 6 months of receipt. WST-8 reagent and electron mediator solution were thawed and mixed to prepare the WST-8 reagent solution. The solution was stored at −20° C. and used within one week.
A suspension of primary RPTECs in complete growth media was brought to a concentration of 1×10^5 cells/mL. A 96-well plate was seeded with 99 μL of the cell suspension and incubated at 37° C. with an atmosphere of 95% air/5% CO2 for 3 hours. Positive and negative controls were prepared by seeding with 100 μL of the cell suspension or 100 μL of the complete media. Compounds were prepared as 5 mM (AmB), 20 mM (C2′deOAmB), and 50 mM (C2′epiAmB) stock solutions in DMSO and serially diluted to the following concentrations with DMSO: 50000, 40000, 30000, 20000, 10000, 8000, 6000, 4000, 3000, 2000, 1500, 1000, 800, 600, 400, 300, 200, 100, 50, 25, 10, 5, 2.5, 1, 0.5, 0.25, and 0.1 μM. 1 μL aliquots of each solution were added to the 96-well plate in triplicate, with each column representing a different concentration of the test compound. The 96-well plate was incubated at 37° C. with an atmosphere of 95% air/5% CO2 for 24 hours. […] Following incubation, the 96-well plate was mixed in a shaking incubator at 200 rpm for 1 minute and absorbances were read at 450 nm using a Biotek H1 Synergy Hybrid Reader (Wanooski, Vt.). […]

SMILES strings stand for the structures.

For `C[C@@H]1[C@H](O)[C@@H](C)/C=C/C=C/C=C/C=C/C=C/C=C/C=C/[C@H](O[C@@H]2O[C@H](C)[C@@H](O)[C@H](N)[C@H]2O)CC2O[C@](O)(C[C@@H](O)C[C@@H](O)[C@H](O)CC[C@@H](O)C[C@@H](O)CC(=O)O[C@H]1C)C[C@H](O)[C@H]2C(=O)O` [C2′epiAmB], in data set [1], the Total exotherm was -6.70 ± 0.11 µcal. The “Toxicity to primary human renal proximal tubule epithelial cells (in words)” value in data set [2] was “no evidence of toxicity up to their limits of solubility”.

Values taken from patent US9738677B2, “Amphotericin B derivative with reduced toxicity” (priority 2014, dated 2017).
